# Experimental data reported in ChEMBL document CHEMBL3885881, “DrugMatrix”.
# Organism: Rattus norvegicus
# Assay: DrugMatrix - Regimen: Daily Repeat
# Format: toxicity, organism-based, Sprague-Dawley
# Design: regimen Daily Repeat, gender Male, age 6-8 weeks
# Details: in vivo, po, route oral GAVAGE, vehicle 100 % WATER; for ABSOLUTE BASOPHIL / ABSOLUTE EOSINOPHIL / ABSOLUTE LYMPHOCYTE / ABSOLUTE MONOCYTE / ABSOLUTE SEGMENTED NEUTROPHIL / BASOPHIL / EOSINOPHIL / ERYTHROCYTE COUNT / HEMATOCRIT / HEMOGLOBIN / LEUKOCYTE COUNT / LYMPHOCYTE / MEAN CORPUSCULAR HEMOGLOBIN / MEAN CORPUSCULAR HEMOGLOBIN CONCENTRATION / MEAN CORPUSCULAR VOLUME / MONOCYTE / NEUTROPHIL / NUCLEATED RED BLOOD CELLS / PLATELET COUNT: tissue Blood; for ALANINE AMINOTRANSFERASE / ALBUMIN / ALKALINE PHOSPHATASE / ASPARTATE AMINOTRANSFERASE / BLOOD UREA NITROGEN / CARBON DIOXIDE / CHLORIDE / CHOLESTEROL / CREATINE PHOSPHOKINASE / CREATININE / GLUCOSE / LACTATE DEHYDROGENASE / LIPASE / PHOSPHORUS / POTASSIUM / SODIUM / TOTAL BILIRUBIN / TOTAL PROTEIN / URIC ACID: tissue Plasma
# [1] = 200 mg/kg, 120 h, dose level Low, time 5 day
# [2] = 2000 mg/kg, 72 h, dose level High, time 3 day
# [3] = 2000 mg/kg, 120 h, dose level High, time 5 day
compound,measurement,setting,value
CC(O)CO (centres undefined) [PROPYLENE GLYCOL],ABSOLUTE BASOPHIL,[1],0 CELLS/uL
same,ABSOLUTE EOSINOPHIL,[1],0 CELLS/uL
same,ABSOLUTE LYMPHOCYTE,[1],15454 CELLS/uL
same,ABSOLUTE MONOCYTE,[1],284.33 CELLS/uL
same,ABSOLUTE SEGMENTED NEUTROPHIL,[1],1261.67 CELLS/uL
same,BASOPHIL,[1],0%
same,EOSINOPHIL,[1],0%
same,ERYTHROCYTE COUNT,[1],5.7 x10E6/uL
same,HEMATOCRIT,[1],35.5%
same,HEMOGLOBIN,[1],14.1 G/DL
same,LEUKOCYTE COUNT,[1],17 x10E3/uL
same,LYMPHOCYTE,[1],91%
same,MEAN CORPUSCULAR HEMOGLOBIN,[1],24.83 pg
same,MEAN CORPUSCULAR HEMOGLOBIN CONCENTRATION,[1],39.73 G/DL
same,MEAN CORPUSCULAR VOLUME,[1],62.37 fL
same,MONOCYTE,[1],1.67%
same,NEUTROPHIL,[1],7.33%
same,NUCLEATED RED BLOOD CELLS,[1],0 /100WBC
same,PLATELET COUNT,[1],1288 x10E3/uL
same,ALANINE AMINOTRANSFERASE,[1],49.33 u/L
same,ALBUMIN,[1],4.37 G/DL
same,ALKALINE PHOSPHATASE,[1],314.33 u/L
same,ASPARTATE AMINOTRANSFERASE,[1],76.33 u/L
same,BLOOD UREA NITROGEN,[1],18 mg/dL
same,CARBON DIOXIDE,[1],25.33 mmol/L
same,CHLORIDE,[1],101 MEQ/L
same,CHOLESTEROL,[1],73 mg/dL
same,CREATINE PHOSPHOKINASE,[1],227.67 u/L
same,CREATININE,[1],0.16 mg/dL
same,GLUCOSE,[1],165.67 mg/dL
same,LACTATE DEHYDROGENASE,[1],181.67 u/L
same,LIPASE,[1],8.33 u/L
same,PHOSPHORUS,[1],12.87 mg/dL
same,POTASSIUM,[1],6.99 MEQ/L
same,SODIUM,[1],143.7 MEQ/L
same,TOTAL BILIRUBIN,[1],0.23 mg/dL
same,TOTAL PROTEIN,[1],6.03 G/DL
same,URIC ACID,[1],2.13 mg/dL
same,ABSOLUTE BASOPHIL,[2],0 CELLS/uL
same,ABSOLUTE EOSINOPHIL,[2],0 CELLS/uL
same,ABSOLUTE LYMPHOCYTE,[2],11801.33 CELLS/uL
same,ABSOLUTE MONOCYTE,[2],112 CELLS/uL
same,ABSOLUTE SEGMENTED NEUTROPHIL,[2],1053.33 CELLS/uL
same,BASOPHIL,[2],0%
same,EOSINOPHIL,[2],0%
same,ERYTHROCYTE COUNT,[2],5.54 x10E6/uL
same,HEMATOCRIT,[2],34.73%
same,HEMOGLOBIN,[2],13.73 G/DL
same,LEUKOCYTE COUNT,[2],12.97 x10E3/uL
same,LYMPHOCYTE,[2],90.33%
same,MEAN CORPUSCULAR HEMOGLOBIN,[2],24.8 pg
same,MEAN CORPUSCULAR HEMOGLOBIN CONCENTRATION,[2],39.53 G/DL
same,MEAN CORPUSCULAR VOLUME,[2],62.77 fL
same,MONOCYTE,[2],1%
same,NEUTROPHIL,[2],8.67%
same,NUCLEATED RED BLOOD CELLS,[2],0 /100WBC
same,PLATELET COUNT,[2],1166 x10E3/uL
same,ALANINE AMINOTRANSFERASE,[2],53.33 u/L
same,ALBUMIN,[2],4.3 G/DL
same,ALKALINE PHOSPHATASE,[2],390 u/L
same,ASPARTATE AMINOTRANSFERASE,[2],82 u/L
same,BLOOD UREA NITROGEN,[2],14.33 mg/dL
same,CARBON DIOXIDE,[2],23 mmol/L
same,CHLORIDE,[2],100.67 MEQ/L
same,CHOLESTEROL,[2],65.33 mg/dL
same,CREATINE PHOSPHOKINASE,[2],195 u/L
same,CREATININE,[2],0.18 mg/dL
same,GLUCOSE,[2],154.67 mg/dL
same,LACTATE DEHYDROGENASE,[2],119.33 u/L
same,LIPASE,[2],10.67 u/L
same,PHOSPHORUS,[2],12.87 mg/dL
same,POTASSIUM,[2],6.42 MEQ/L
same,SODIUM,[2],143.1 MEQ/L
same,TOTAL BILIRUBIN,[2],0.17 mg/dL
same,TOTAL PROTEIN,[2],5.93 G/DL
same,URIC ACID,[2],1.53 mg/dL
same,ABSOLUTE BASOPHIL,[3],0 CELLS/uL
same,ABSOLUTE EOSINOPHIL,[3],46 CELLS/uL
same,ABSOLUTE LYMPHOCYTE,[3],14960.67 CELLS/uL
same,ABSOLUTE MONOCYTE,[3],42.67 CELLS/uL
same,ABSOLUTE SEGMENTED NEUTROPHIL,[3],1217.33 CELLS/uL
same,BASOPHIL,[3],0%
same,EOSINOPHIL,[3],0.33%
same,ERYTHROCYTE COUNT,[3],5.65 x10E6/uL
same,HEMATOCRIT,[3],35.27%
same,HEMOGLOBIN,[3],14 G/DL
same,LEUKOCYTE COUNT,[3],16.27 x10E3/uL
same,LYMPHOCYTE,[3],91.67%
same,MEAN CORPUSCULAR HEMOGLOBIN,[3],24.83 pg
same,MEAN CORPUSCULAR HEMOGLOBIN CONCENTRATION,[3],39.7 G/DL
same,MEAN CORPUSCULAR VOLUME,[3],62.5 fL
same,MONOCYTE,[3],0.33%
same,NEUTROPHIL,[3],7.67%
same,NUCLEATED RED BLOOD CELLS,[3],0 /100WBC
same,PLATELET COUNT,[3],1315.33 x10E3/uL
same,ALANINE AMINOTRANSFERASE,[3],52 u/L
same,ALBUMIN,[3],4.3 G/DL
same,ALKALINE PHOSPHATASE,[3],327.33 u/L
same,ASPARTATE AMINOTRANSFERASE,[3],76.67 u/L
same,BLOOD UREA NITROGEN,[3],17.33 mg/dL
same,CARBON DIOXIDE,[3],27 mmol/L
same,CHLORIDE,[3],102 MEQ/L
same,CHOLESTEROL,[3],69 mg/dL
same,CREATINE PHOSPHOKINASE,[3],218 u/L
same,CREATININE,[3],0.16 mg/dL
same,GLUCOSE,[3],159.33 mg/dL
same,LACTATE DEHYDROGENASE,[3],121 u/L
same,LIPASE,[3],8.67 u/L
same,PHOSPHORUS,[3],12.4 mg/dL
same,POTASSIUM,[3],5.9 MEQ/L
same,SODIUM,[3],144.67 MEQ/L
same,TOTAL BILIRUBIN,[3],0.17 mg/dL
same,TOTAL PROTEIN,[3],6.07 G/DL
same,URIC ACID,[3],1.43 mg/dL
